What all share (assay type): biochemical
In experiment [1] the target is T1, human leukocyte elastase (HLE) (Homo sapiens, UniProt P08246).
T1 sequence (P08246 30-267): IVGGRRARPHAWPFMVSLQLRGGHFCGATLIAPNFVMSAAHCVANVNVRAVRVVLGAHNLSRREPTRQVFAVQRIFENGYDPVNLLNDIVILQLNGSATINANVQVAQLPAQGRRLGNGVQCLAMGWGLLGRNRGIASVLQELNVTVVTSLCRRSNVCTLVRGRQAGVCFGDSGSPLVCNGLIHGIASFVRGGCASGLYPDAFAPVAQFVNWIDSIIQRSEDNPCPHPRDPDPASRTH
As to the kind of experiment: Inactivation of human leukocyte elastase, progress curve method. As to the method:
Absorbance was recorded at 410 nm for reaction solutions containing 20.0 nM HLE, 1.00 mM MeOSuc-Ala-Ala-Pro-Val p-nitroanilide, and the indicated concentrations of inhibitor in 0.1 M HEPES buffer, pH 7.25, and 3.6% dimethyl sulfoxide. The temperature was maintained at 25° C., and the reactions were initiated by the addition of enzyme.
(Table 4). Absorbance was monitored at 410 nm for reaction solutions containing 20.0 nM HLE, 1.00 mM MeOSuc-Ala-Ala-Pro-Val p-nitroanilide, and the indicated concentrations of inhibitor in 0.1 M HEPES buffer, pH 7.25, and 3.6% dimethyl sulfoxide. The temperature was maintained at 25° C., and the reactions were initiated by the addition of enzyme.
(§1) An in vitro assay was used to screen compounds of the invention for the ability to reduce or inhibit serine protease activity. The human leukocyte elastase (HLE), cathepsin G (Cat G) and proteinase 3 (PR 3) assays have each been described in detail, Groutas et al. (1997) Biochemistry 36, 4739-4750. Chymase was assayed using N-succinyl Ala-Ala-Pro-Phe p-nitroanilide and 0.45 M Tris buffer/1.8 M NaCl, pH 8.03, Schechter, N. M. et al. (1993) J. Biol. Chem. 268, 23626-23633.
(§2) The rates of inactivation of HLE, Cat G or PR3 by each compound (or library of compounds) were determined by the progress curve method [Morrison, J. F. & Walsh, C. T. (1988) Adv. Enzymol. 61, 201-301]. Typical progress curves using a representative sulfonamide or heterocyclic sulfide inhibitor are illustrated in FIGS. 1 and 2, respectively. The apparent second-order rate constants kinact/kI M^−1 s^−1, the magnitude of which serves as an index of inhibitory potency, were determined by the progress curve method and are listed in Table 5 (sulfonamides), Table 6 (heterocyclic sulfides), Table 3 (oxa acids) , Tables 7 & 8 (libraries 1-30), and Table 9 (reversible inhibitors).

The target in experiment [2] is T2, Human Leukocyte Proteinase 3 (PR 3) (Homo sapiens, UniProt P24158).
T2 sequence (P24158 28-248): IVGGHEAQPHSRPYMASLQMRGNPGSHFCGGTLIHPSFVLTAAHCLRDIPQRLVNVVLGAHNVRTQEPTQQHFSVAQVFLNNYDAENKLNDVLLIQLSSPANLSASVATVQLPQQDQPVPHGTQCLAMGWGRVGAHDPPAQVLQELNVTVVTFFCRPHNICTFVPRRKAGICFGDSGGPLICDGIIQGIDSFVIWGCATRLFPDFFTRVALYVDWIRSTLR
As to the kind of experiment: Inactivation of proteinase 3, progress curve method. As to the method:
as §1, §2

Experiment [3] has as its target T3, human leukocyte cathepsin G (Cat G) (Homo sapiens, UniProt P08311).
T3 sequence (P08311 21-244): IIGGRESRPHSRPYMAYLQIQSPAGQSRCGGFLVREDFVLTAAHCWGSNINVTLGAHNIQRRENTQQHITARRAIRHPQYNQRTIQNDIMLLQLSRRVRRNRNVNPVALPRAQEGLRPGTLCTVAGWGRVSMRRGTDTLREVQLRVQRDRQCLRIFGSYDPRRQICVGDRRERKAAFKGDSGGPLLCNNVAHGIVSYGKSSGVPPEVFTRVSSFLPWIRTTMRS
The experiment is described as follows: Inactivation of cathepsin G, progress curve method. As to the method: as §1, §2
A solution of (L)-4,5-dibenzyl-1,2,5-thiadiazolidin-3-one 1,1 dioxide (0.5 g; 1.58 mmol) and ethyl α-bromofluoroacetate (0.44 g; 2.37 mmol) in dry dimethyl formamide (3 mL) was treated with 60% sodium hydride ([…]; 1.58 mmol). The reaction mixture was kept at 55° C. for 1 h using a water bath. The solvent was removed in vacuo and the product was dissolved in ethyl acetate (35 mL) and washed with water (3×10 mL), 5% sodium bicarbonate (2×10 mL) and dried over anhydrous sodium sulfate. Evaporation of the solvent yielded a crude product (0.56 g) which was purified by flash chromatography using silica gel and a hexane/methylene chloride gradient. The product K-1a (0.15 g; 25% yield) was screened against human leukocyte cathepsin G using the progress curve method (kinact/Ki>10,000 M^−1 s^−1). [drawing 45] [drawing 46] [drawing 47] [drawing 48] [drawing 49]

Setting [4] is: Table 6, heterocyclic sulfides 53-69.
Setting [5] is: Table 5, sulfonamides 31-49, apparent second-order rate constant.

For the compound `CC(C)CC1C(=O)N(CSc2nc(-c3ccccc3)no2)S(=O)(=O)N1C` (centres unmarked) [Compound 53], the kinact/KI in experiment [1] (setting [4]) is 153000 M⁻¹ s⁻¹.
As for `CC(C)CC1C(=O)N(CN(C(=O)Cc2ccccc2)S(C)(=O)=O)S(=O)(=O)N1C` (centres unmarked) [Compound 40], the kinact/KI was 28300 M⁻¹ s⁻¹ in experiment [1] (setting [5]); 10100 M⁻¹ s⁻¹ in experiment [2] (Table 5, sulfonamides 31-49); 220 M⁻¹ s⁻¹ in experiment [3] (Table 5, sulfonamides 31-49).
With `CC(C)CC1C(=O)N(CSc2nc3cc(-c4ccccc4)ccc3o2)S(=O)(=O)N1Cc1ccccc1` (centres unmarked) [Compound 64], the “kinact/KI HLE” value in experiment [1] (setting [4]) was “inactive”. Besides, the kinact/KI was 1090 M⁻¹ s⁻¹ in experiment [2] (setting [4]) and 50 M⁻¹ s⁻¹ in experiment [3] (setting [4]).
As to `CC(C)CC1C(=O)N(CSc2nc3ccccc3o2)S(=O)(=O)N1Cc1ccccc1` (centres unmarked) [Compound 55], the kinact/KI is 174000 M⁻¹ s⁻¹ in experiment [1] (setting [4]), 9130 M⁻¹ s⁻¹ in experiment [2] (setting [4]) and 60 M⁻¹ s⁻¹ in experiment [3] (setting [4]).
For `CC(C)CC1C(=O)N(CSc2nc3ccccc3o2)S(=O)(=O)N1C` (centres unmarked) [Compound 57] the same measures were 80600 M⁻¹ s⁻¹, 10400 M⁻¹ s⁻¹ and 30 M⁻¹ s⁻¹.
In the case of `CC(C)CC1C(=O)N(CSc2nc3ccccc3s2)S(=O)(=O)N1Cc1ccccc1` (centres unmarked) [Compound 59], in experiment [1] (setting [4]), the kinact/KI came to 22400 M⁻¹ s⁻¹.
`CCOC(=O)C(F)N1C(=O)C(Cc2ccccc2)N(Cc2ccccc2)S1(=O)=O` (centres unmarked) [Compound K-1a]: the kinact/Ki in experiment [3] (human leukocyte cathepsin G, progress curve method) is > 10,000 M^−1 s^−1.
Take `CC(C)CC1C(=O)N(CN(C(=O)CNC(=O)OCc2ccccc2)S(C)(=O)=O)S(=O)(=O)N1C` (centres unmarked) [Compound 43]: the kinact/KI in experiment [1] (setting [5]) was 229000 M⁻¹ s⁻¹; in experiment [2] (Table 5, sulfonamides 31-49), 27400 M⁻¹ s⁻¹; in experiment [3] (Table 5, sulfonamides 31-49), 60 M⁻¹ s⁻¹.
Turning to `CC(C)CC1C(=O)N(CSc2nc3ccccc3s2)S(=O)(=O)N1C` (centres unmarked) [Compound 54], the kinact/KI in experiment [1] (setting [4]) is 67300 M⁻¹ s⁻¹.
For `Nc1ccc2nc(SCN3C(=O)C(Cc4ccccc4)N(Cc4ccccc4)S3(=O)=O)oc2c1` (centres unmarked) [Compound 69], the kinact/KI in experiment [3] (setting [4]) worked out at 15700 M⁻¹ s⁻¹.
`CC(C)CC1C(=O)N(CN(C(=O)CNC(=O)OCc2ccccc2)S(C)(=O)=O)S(=O)(=O)N1Cc1ccccc1` (centres unmarked) [Compound 45]: the kinact/KI in experiment [1] (setting [5]) came out at 134000 M⁻¹ s⁻¹; in experiment [2] (Table 5, sulfonamides 31-49), 30100 M⁻¹ s⁻¹; in experiment [3] (Table 5, sulfonamides 31-49), 70 M⁻¹ s⁻¹.
Turning to `CC(C)CC1C(=O)N(CN(C(=O)c2ccccc2)S(C)(=O)=O)S(=O)(=O)N1C` (centres unmarked) [Compound 39], the kinact/KI in experiment [1] (setting [5]) was 71000 M⁻¹ s⁻¹.
Take `CN1C(Cc2ccccc2)C(=O)N(CSc2nc3ccccc3o2)S1(=O)=O` (centres unmarked) [Compound 66]: in experiment [3] (setting [4]), the kinact/KI is 430 M⁻¹ s⁻¹.
Regarding `CC(C)CC1C(=O)N(CN(C(=O)CNC(=O)OC(C)(C)C)S(C)(=O)=O)S(=O)(=O)N1Cc1ccccc1` (centres unmarked) [Compound 44], the kinact/KI in experiment [1] (setting [5]) stood at 149000 M⁻¹ s⁻¹.
As to `CC(C)CC1C(=O)N(CN(C(=O)OCc2ccccc2)S(C)(=O)=O)S(=O)(=O)N1C` (centres unmarked) [Compound 33], the kinact/KI in experiment [1] (setting [5]) amounted to 22000 M⁻¹ s⁻¹.
As for `O=C1C(Cc2ccccc2)N(Cc2ccccc2)S(=O)(=O)N1CSc1nnc(-c2ccccc2)o1` (centres unmarked) [Compound 68], the kinact/KI in experiment [3] (setting [4]) turned out to be 17500 M⁻¹ s⁻¹.
Turning to `CC(C)CC1C(=O)N(CN2C(=O)C(CC(C)C)N(Cc3ccccc3)S2(=O)=O)S(=O)(=O)N1Cc1ccccc1` (centres unmarked) [Compound 49], the kinact/KI in experiment [1] (setting [5]) is 850 M⁻¹ s⁻¹.
Consider `CN1C(Cc2ccccc2)C(=O)N(CSc2nnc(-c3ccccc3)o2)S1(=O)=O` (centres unmarked) [Compound 65], for which the “kinact/KI HLE” value in experiment [1] (setting [4]) was “inactive”. Also, the kinact/KI in experiment [3] (setting [4]) came to 490 M⁻¹ s⁻¹.
In the case of `CCCCOC(=O)N(CN1C(=O)C(Cc2ccccc2)N(Cc2ccccc2)S1(=O)=O)S(C)(=O)=O` (centres unmarked) [Compound 38], the kinact/KI is 1970 M⁻¹ s⁻¹ in experiment [1] (setting [5]) and 5380 M⁻¹ s⁻¹ in experiment [3] (Table 5, sulfonamides 31-49).
With `CCCCOC(=O)N(CN1C(=O)C(CC(C)C)N(C)S1(=O)=O)S(C)(=O)=O` (centres unmarked) [Compound 32], the inactivation efficiency (kinact/KI) in experiment [1] (setting [5]) turned out to be 40500 M⁻¹ s⁻¹.
With `CC(C)CC1C(=O)N(CSc2nc(-c3ccccc3)c(-c3ccccc3)o2)S(=O)(=O)N1C` (centres unmarked) [Compound 60], the kinact/KI in experiment [1] (setting [4]) was 1540 M⁻¹ s⁻¹.
With `CC(C)CC1C(=O)N(CSc2nc(-c3ccccc3)c(-c3ccccc3)o2)S(=O)(=O)N1Cc1ccccc1` (centres unmarked) [Compound 56], the kinact/KI in experiment [1] (setting [4]) was 560 M⁻¹ s⁻¹.
Still for that read-out and setting: the figure for `CC(C)CC1C(=O)N(CSc2nc3cc(-c4ccccc4)ccc3o2)S(=O)(=O)N1C` (centres unmarked) [Compound 63] is 22600 M⁻¹ s⁻¹; for `CC(C)CC1C(=O)N(CSc2nc(-c3ccccc3)no2)S(=O)(=O)N1Cc1ccccc1` (centres unmarked) [Compound 62] it is 67800 M⁻¹ s⁻¹.
On to `O=C1C(Cc2ccccc2)N(Cc2ccccc2)S(=O)(=O)N1CSc1nc2ccccc2o1` (centres unmarked) [Compound 67], for which the kinact/KI in experiment [3] (setting [4]) was 17100 M⁻¹ s⁻¹.
In the case of `CC(C)COC(=O)N(CN1C(=O)C(CC(C)C)N(C)S1(=O)=O)S(C)(=O)=O` (centres unmarked) [Compound 31], the kinact/KI in experiment [1] (setting [5]) worked out at 11900 M⁻¹ s⁻¹.
In the case of `CC(C)CC1C(=O)N(CSc2nnc(-c3ccccc3)o2)S(=O)(=O)N1C` (centres unmarked) [Compound 61], in experiment [1] (setting [4]), the kinact/KI was 25300 M⁻¹ s⁻¹.
Take `CC(C)CC1C(=O)N(CN(C(=O)CNC(=O)OC(C)(C)C)S(C)(=O)=O)S(=O)(=O)N1C` (centres unmarked) [Compound 42]: the kinact/KI came to 140000 M⁻¹ s⁻¹ in experiment [1] (setting [5]) and 27400 M⁻¹ s⁻¹ in experiment [2] (Table 5, sulfonamides 31-49).
For the compound `CC(C)CC1C(=O)N(CSc2nnc(-c3ccccc3)o2)S(=O)(=O)N1Cc1ccccc1` (centres unmarked) [Compound 58], in experiment [1] (setting [4]), the kinact/KI was 168000 M⁻¹ s⁻¹.
Take `CCOC(=O)CNC(=O)N(CN1C(=O)C(CC(C)C)N(Cc2ccccc2)S1(=O)=O)S(C)(=O)=O` (centres unmarked) [Compound 48]: the kinact/KI in experiment [1] (setting [5]) was found to be 14100 M⁻¹ s⁻¹; in experiment [2] (Table 5, sulfonamides 31-49), 5190 M⁻¹ s⁻¹; in experiment [3] (Table 5, sulfonamides 31-49), 70 M⁻¹ s⁻¹.

As usually defined, the kinact/KI is the second-order rate constant of inactivation.

Source of the values: patent US6420401B1, “1,2,5, thiadiazolidin-3-one 1,1-dioxide derivatives” (Wichita State University, priority 1997, dated 2002).
